Series [1] concerns the target T1, Free fatty acid receptor 1 (Homo sapiens, UniProt O14842). Nature of the series: Agonist activity at recombinant human GPR40 expressed in HEK293 cells assessed as increase in IP1 accumulation measured after 60 mins by HTRF assay relative to AM-1638. The format is functional, cell-based. On the technique in general: In TR-FRET formats the signal depends on donor and acceptor labels being close together.

Series [2] has as its target T1, Free fatty acid receptor 1. As to the kind of experiment: Agonist activity at recombinant human GPR40 expressed in HEK293 cells assessed as increase in IP1 accumulation measured after 60 mins in presence of 100% human serum by HTRF assay relative to AM-1638. The format is functional, cell-based.
Series [3] addresses T1, Free fatty acid receptor 1. As to the kind of experiment: Agonist activity at recombinant human GPR40 expressed in HEK293 cells assessed as increase in IP1 accumulation measured after 60 mins by HTRF assay. The format is functional, cell-based.
The target of series [4] is T1, Free fatty acid receptor 1. As to the kind of experiment: Agonist activity at recombinant human GPR40 expressed in HEK293 cells assessed as increase in IP1 accumulation measured after 60 mins in presence of 100% human serum by HTRF assay. The format is functional, cell-based.
Series [5] has as its system Rattus norvegicus. As to the kind of experiment: Antidiabetic activity in Sprague-Dawley rat assessed as inhibition of blood glucose AUC at 3 mg/kg, po treated prior to dextrose challenge and measured after 20 to 60 mins by IPGTT relative to control. The format is functional. The following applies: for inhibition in vivo at 3 mg/kg: Rattus norvegicus, Sprague-Dawley, po.

Series [6] in a line: Lipophilicity, log D of the compound at pH 7 at 100 uM by HPLC method. It is filed as physicochemical. The following applies: buffer.

pEC50: −log10 of the molar value. A value given as a limit tells only on which side of the number the result lay.

T1 sequence (O14842 whole entry): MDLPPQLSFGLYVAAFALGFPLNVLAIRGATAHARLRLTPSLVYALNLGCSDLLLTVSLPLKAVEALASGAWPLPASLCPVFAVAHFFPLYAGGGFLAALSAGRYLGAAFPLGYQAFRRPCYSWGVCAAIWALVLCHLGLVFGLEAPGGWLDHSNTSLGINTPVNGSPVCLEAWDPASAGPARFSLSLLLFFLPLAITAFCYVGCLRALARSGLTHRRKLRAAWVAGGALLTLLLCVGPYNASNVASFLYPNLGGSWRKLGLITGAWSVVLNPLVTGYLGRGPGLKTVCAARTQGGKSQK

For `COc1ccc(F)c(-c2ccc(C3CCc4ccc([C@H](C5CC5)[C@H](C)C(=O)O)cc4O3)cn2)c1` (stereo in doubt; 19) [listing 1 of 2 here], the max activation in series [1] and in series [2] was above 179% throughout.
Take `COc1ccc(F)c(-c2ccc(C3CCc4ccc([C@H](C5CC5)[C@H](C)C(=O)O)cc4O3)cc2)c1` (stereo in doubt; 15) [listing 1 of 2 here]: the figures for the pEC50 in series [3] and in series [4] were 8.59 and 6.90, respectively. Moreover, in series [5], the inhibition in vivo (in general, the drop in the measured response relative to a control, in per cent) at 3 mg/kg came to 102%.
In the case of `COc1cc(-c2cnc(C3CCc4ccc([C@H](C5CC5)[C@H](C)C(=O)O)cc4O3)c(F)c2)c(F)cn1` (stereo in doubt; 30) [listing 1 of 2 here], the max activation in series [1] and in series [2] was above 179% in each case.
In the case of `COc1cc(-c2cnc(C3CCc4ccc([C@H](C5CC5)[C@H](C)C(=O)O)cc4O3)c(F)c2)c(F)cn1` (stereo in doubt; 31) [listing 1 of 2 here], the pEC50 (in general, the EC50 on a negative log10 scale, so that one unit is a factor of ten) in series [4] is 6.12.
As to `COc1cc(-c2ccc(C3CCc4ccc([C@H](C5CC5)[C@H](C)C(=O)O)cc4O3)cc2)c(F)cn1` (stereo in doubt; 20), the max activation in series [1] and in series [2] was above 179% in each case.
As for `COc1cc(-c2ccc(C3CCc4ccc([C@H](C5CC5)[C@H](C)C(=O)O)cc4O3)cc2)ccn1` (stereo in doubt; 22), the max activation in series [1] and in series [2] was above 179% in each case.
`COc1cc(-c2ccc(C3CCc4ccc([C@H](C5CC5)[C@H](C)C(=O)O)cc4O3)cc2)ccn1` (stereo in doubt; 23): the max activation in series [1] and in series [2] was above 179% throughout.
On to `COc1ccc(F)c(-c2ccc(C3CCc4ccc([C@H](C5CC5)[C@H](C)C(=O)O)cc4O3)nc2)c1` (stereo in doubt; 17) [listing 1 of 2 here], for which the max activation in series [1] and in series [2] was above 179% in each case.
Turning to `COc1cc(-c2ccc(C3CCc4ccc([C@H](C5CC5)[C@H](C)C(=O)O)cc4O3)cc2)c(F)cn1` (stereo in doubt; 21), the max activation in series [1] and in series [2] was above 179% each time.
Turning to `COc1cc(-c2ccc(C3CCc4ccc([C@H](C5CC5)[C@H](C)C(=O)[O-])cc4O3)cc2)c(F)cn1.[Na+]` (stereo in doubt; 20), in series [6], the log distribution coefficient (logD) (commonly lipophilicity at a set pH, counting ionised and neutral species) at 100 µM came to 2.68. The pEC50 in series [3] was 9.05; in series [4], 7.18. The “inhibition (INH)” value in series [5] was determined as 59%.
Take `COc1cc(-c2ccc(C3CCc4ccc([C@H](C5CC5)[C@H](C)C(=O)O)cc4O3)nc2)ccn1` (stereo in doubt; 33) [listing 1 of 2 here]: the max activation in series [1] and in series [2] was above 179% throughout.
In the case of `CSc1cccc(-c2ccc(C3CCc4ccc([C@@H](CC(=O)O)C5CC5)cc4O3)cc2)c1` (mixture of isomers), the pEC50 in series [4] was 5.29. Further, the max activation in series [1] was 500%; in series [2], 144%.
On to `COc1cc(-c2cnc(C3CCc4ccc([C@H](C5CC5)[C@H](C)C(=O)O)cc4O3)c(F)c2)c(F)cn1` (stereo in doubt; 31) [listing 2 of 2 here], for which the max activation in series [1] and in series [2] was above 179% each time.
In the case of `COc1cc(-c2ccc(C3CCc4ccc([C@H](C5CC5)[C@H](C)C(=O)[O-])cc4O3)nc2)c(F)cn1.[Na+]` (stereo in doubt; 28), the log distribution coefficient (logD) at 100 µM in series [6] was 1.98. Moreover, the negative logarithm of the EC50 (pEC50) in series [3] is above 9.70; in series [4], 5.99. Further, in series [5], the “inhibition (INH)” value was determined as 102%.
For the compound `COc1cc(-c2ccc(C3CCc4ccc([C@@H](CC(=O)O)C5CC5)cc4O3)cc2)c(F)cn1` (some centres undefined), the pEC50 in series [4] was 5.92. For the same compound, the results for the max activation in series [1] and in series [2] were 460% and 224%, respectively.
`COc1cc(-c2cnc(C3CCc4ccc([C@H](C5CC5)[C@H](C)C(=O)O)cc4O3)c(F)c2)c(F)cn1` (stereo in doubt; 30) [listing 2 of 2 here]: in series [6], the logD at 100 µM amounted to 2.36. For the same compound, the negative-log EC50 (pEC50) in series [4] was 6.42.
For `O=C(O)C[C@H](c1ccc2c(c1)OC(c1ccc(-c3ccccc3)cc1)CC2)C1CC1` (single isomer, unassigned), the pEC50 in series [3] is 6.88; in series [4] it was 5.26. Moreover, the max activation in series [1] amounted to 452%; in series [2], 57%.
In the case of `O=C(O)C[C@H](c1ccc2c(c1)OC(c1ccc(-c3cccc(O)c3)cc1)CC2)C1CC1` (mixture of isomers), the values for the pEC50 in series [3] and in series [4] were 6.41 and 5.34, respectively. Further, the values for the max activation in series [1] and in series [2] were 422% and 231%, respectively.
Turning to `COc1cc(-c2ccc(C3CCc4ccc([C@H](C5CC5)[C@H](C)C(=O)O)cc4O3)nc2)ccn1` (stereo in doubt; 33) [listing 2 of 2 here], the pEC50 in series [4] is 6.34.
Take `COc1ccc(F)c(-c2ccc(C3CCc4ccc([C@H](C5CC5)[C@H](C)C(=O)O)cc4O3)cn2)c1` (stereo in doubt; 18) [listing 1 of 2 here]: the max activation in series [1] and in series [2] was above 179% in each case.
As to `COc1cc(-c2ccc(C3CCc4ccc([C@H](C5CC5)[C@H](C)C(=O)O)cc4O3)c(F)c2)ccn1` (mixture of isomers), the negative logarithm of the EC50 (pEC50) is 8.09 in series [3] and 6.04 in series [4]. For the same compound, the max activation in series [1] and in series [2] was above 179% in each case. The inhibition in vivo at 3 mg/kg in series [5] is 84%.
For the compound `COc1cc(-c2ccc(C3CCc4ccc([C@@H](CC(=O)O)C5CC5)cc4O3)cc2)ccn1` (mixture of isomers), in series [4], the negative-log EC50 (pEC50) was 5.59. Besides, the max activation in series [1] was determined as 401%; in series [2] it was 229%.
In series [6], `COc1cc(-c2ccc(C3CCc4ccc([C@H](C5CC5)[C@H](C)C(=O)[O-])cc4O3)c(F)c2)c(F)cn1.[Na+]` (stereo in doubt; 26) showed a log distribution coefficient (logD) at 100 µM of 2.97. The pEC50 was above 9.70 in series [3] and 7.44 in series [4]. Moreover, the “inhibition (INH)” value in series [5] was 72%.
Turning to `COc1cc(-c2ccc(C3CCc4ccc([C@H](C5CC5)[C@H](C)C(=O)[O-])cc4O3)c(F)c2)c(F)cn1.[Na+]` (stereo in doubt; 27), the negative logarithm of the EC50 (pEC50) in series [4] was 6.48. The “inhibition (INH)” value in series [5] worked out at 38%.
As for `COc1ccc(F)c(-c2ccc(C3CCc4ccc([C@H](C5CC5)[C@H](C)C(=O)O)cc4O3)nc2)c1` (stereo in doubt; 17) [listing 2 of 2 here], the inhibition in vivo at 3 mg/kg in series [5] was determined as 100%.
On to `COc1cc(-c2ccc(C3CCc4ccc([C@H](C5CC5)[C@H](C)C(=O)O)cc4O3)nc2)ccn1` (stereo in doubt; 32) [listing 1 of 2 here], for which the max activation in series [1] and in series [2] was above 179% in each case.
`COc1cc(-c2ccc(C3CCc4ccc([C@H](C5CC5)[C@H](C)C(=O)O)cc4O3)c(F)c2)c(F)cn1` (stereo in doubt; 26): the max activation in series [1] and in series [2] was above 179% in each case.
For `COc1cc(-c2ccc(C3CCc4ccc([C@H](C5CC5)[C@H](C)C(=O)O)cc4O3)c(F)c2)c(F)cn1` (stereo in doubt; 27), the max activation in series [1] and in series [2] was above 179% throughout.
For `COc1cccc(-c2ccc(C3CCc4ccc([C@@H](CC(=O)O)C5CC5)cc4O3)cc2)n1` (mixture of isomers), the negative logarithm of the EC50 (pEC50) in series [4] was below 5.00. Further, the max activation was 535% in series [1] and 2.4% in series [2].
As to `COc1cc(-c2ccc(C3CCc4ccc([C@H](C5CC5)[C@H](C)C(=O)[O-])cc4O3)cc2)ccn1.[Na+]` (stereo in doubt; 22), the log distribution coefficient (logD) at 100 µM in series [6] worked out at 2.3. In series [4], the pEC50 is 6.42. Moreover, the “inhibition (INH)” value in series [5] worked out at 49%.
As for `COc1cc(-c2ccc(C3CCc4ccc([C@H](C5CC5)[C@H](C)C(=O)[O-])cc4O3)cc2)ccn1.[Na+]` (stereo in doubt; 23), in series [4], the negative-log EC50 (pEC50) is 6.28. Besides, the “inhibition (INH)” value in series [5] was determined as 7%.
For `COc1ccc(F)c(-c2ccc(C3CCc4ccc([C@H](C5CC5)[C@H](C)C(=O)O)cc4O3)cc2)c1` (stereo in doubt; 15) [listing 2 of 2 here], the max activation in series [1] and in series [2] was above 179% each time.
Turning to `O=C(O)C[C@H](c1ccc2c(c1)OC(c1ccc(-c3cccc(OC(F)(F)F)c3)cc1)CC2)C1CC1` (mixture of isomers), the pEC50 is 6.03 in series [3] and 5.19 in series [4]. For the same compound, the results for the max activation in series [1] and in series [2] were 385% and 73%, respectively.
With `COc1cc(-c2ccc(C3CCc4ccc([C@H](C5CC5)[C@H](C)C(=O)O)cc4O3)nc2)c(F)cn1` (stereo in doubt; 28), the max activation in series [1] and in series [2] was above 179% each time.
For the compound `COc1cccc(-c2ccc(C3CCc4ccc([C@@H](CC(=O)O)C5CC5)cc4O3)cc2)c1` (single isomer, unassigned), the figures for the negative-log EC50 (pEC50) in series [3] and in series [4] were 7.64 and 5.39, respectively. Also, the max activation came out at 394% in series [1] and 223% in series [2].
In the case of `COc1cc(-c2ccc(C3CCc4ccc([C@H](C5CC5)[C@H](C)C(=O)O)cc4O3)nc2)ccn1` (stereo in doubt; 32) [listing 2 of 2 here], the log distribution coefficient (logD) at 100 µM in series [6] is 1.74. Further, the negative-log EC50 (pEC50) in series [4] was 6.08.
`COc1ccc(F)c(-c2ccc(C3CCc4ccc([C@H](C5CC5)[C@H](C)C(=O)O)cc4O3)cn2)c1` (stereo in doubt; 18) [listing 2 of 2 here] registered a pH-dependent lipophilicity (logD) at 100 µM in series [6] of 2.29. Besides, the pEC50 in series [3] was 7.62; in series [4], 5.27.
As for `COc1ccc(F)c(-c2ccc(C3CCc4ccc([C@@H](CC(=O)O)C5CC5)cc4O3)cc2)c1` (mixture of isomers), the negative logarithm of the EC50 (pEC50) in series [3] is 8.15; in series [4] it was 5.91. Moreover, the max activation in series [1] stood at 359%; in series [2] it was 188%.
As to `COc1ccc(F)c(-c2ccc(C3CCc4ccc([C@H](C5CC5)[C@H](C)C(=O)O)cc4O3)cn2)c1` (stereo in doubt; 19) [listing 2 of 2 here], the negative logarithm of the EC50 (pEC50) is 7.89 in series [3] and 5.61 in series [4].
On to `COc1cc(-c2ccc(C3CCc4ccc([C@H](C5CC5)[C@H](C)C(=O)[O-])cc4O3)cc2)c(F)cn1.[Na+]` (stereo in doubt; 21), for which the pEC50 was above 9.70 in series [3] and 6.98 in series [4]. The “inhibition (INH)” value in series [5] was determined as 88%.

The record behind these values is ChEMBL document CHEMBL4145665, “Structure-Activity Relationship of Novel and Selective Biaryl-Chroman GPR40 AgoPAMs” (ACS Med Chem Lett, 2018).
